For four compounds, ED50 results are on record in ChEMBL document CHEMBL1124596, “Introduction of a putative dopaminergic prodrug moiety into a 6,7-substitution pattern characteristic of certain 2-aminotetralin dopaminergic agonists” (1989).

This assay deals with Felis catus. Description: Inhibition of cat cardiac response to cardioaccelerator nerve stimulation, when administered intravenously. The assay is classed as functional. The following applies: iv, read-out: ID50 (the source's name).
Take `CCCN(CCC)C1CCc2cc(C)c(O)cc2C1` (centres undefined): the ED50 is 0.54 µmol/kg. Take `CN1CCc2cccc3c2[C@H]1Cc1ccc(O)c(O)c1-3` [APOMORPHINE]: the ED50 was 0.035 µmol/kg. The figure for `CCCN(CCC)C1CCc2c(ccc(C)c2O)C1` (centres undefined) is 0.25 µmol/kg; for `CCCN(CCC)C1CCc2cc(O)c(C)cc2C1` (centres undefined) it is 1.75 µmol/kg.
